Measurements from patent US11111237B2, “Bicyclic compound and use thereof” (SK BIOPHARMACEUTICALS CO., LTD., priority 2019, dated 2021).
pIC50: −log10 of the molar value.

biological target: PRMT5-MEP50 enzyme complex (Homo sapiens (Human), UniProt O14744); assay: PRMT5 enzyme activity in vitro assay (methylation of histone H4R3, ELISA absorbance at 450 nm); format: biochemical; conditions: SAM, histone H4 peptide, room temperature 2 hours, 8 points from 10 μM to 0.128 nM
Method: Method for Measuring Enzyme Activity
In vitro assay: PRMT5-MEP50 enzyme complex, cofactor S-adenosylmethionine (SAM) and histone H4 peptide were reacted in vitro, and methylation of arginine (H4R3)—which is the third amino acid of histone H4—was measured in order to measure the enzyme activity of PRMT5.
Reagents: PRMT5-MEP50 enzyme complex (Catalog No. 51045), blocking buffer (52100-B), histone methyltransferase reaction buffer 2 (4×HMT assay buffer 2, Catalog No. 52170), and primary antibody (primary antibody 4-3, Catalog No. 52150) were purchased from BPS Bioscience (USA). The histone H4 peptide (1-20 amino acids) was custom made by Komabiotech (Korea) and used. S-adenosylmethionine was purchased from NEB (New England Biolabs, USA, Catalog No. B9003S). Plates for coating histone H4 peptide, washing buffer and color development reagent were purchased from the following vendors: Plate (Immobilizer™-Amino Plate, NUNC, Denmark, Catalog No. 436023), carbonate-bicarbonate buffer (Sigma-Aldrich, USA, Catalog No. C3041), washing buffer (10×TBST, Biosesang, Korea, Catalog No. T2005), TMB ELISA substrate (Abcam, UK, Catalog No. ab210902), horseradish peroxidase (HRP)-conjugated antibody (Abcam, UK, Catalog No. ab6721).
Experimental procedure: The histone H4 peptide was diluted with carbonate-bicarbonate buffer and prepared to 100 μg/mL, and then dispensed onto the plate per 100 μL and reacted at 37° C. for 1 hour. PRMT5-MEP50 enzyme complex and S-adenosylmethionine were diluted with histone methyltransferase reaction buffer to prepare 5 μg/mL and 2 μM, respectively, and then 20 μL of PRMT5-MEP50 enzyme complex and 25 μL of S-adenosylmethionine were dispensed onto the plate prepared above. 5 μL of the compound diluted with 10% dimethyl sulfoxide solution was added thereto and reacted at room temperature for 2 hours (final volume=50 μL). The concentration of the compound was diluted 1:5 from 10 μM until the lowest concentration of 0.128 nM, and 8 points were used for the test. After preparing the primary antibody by diluting 1:2000 with blocking buffer, 100 μL was added to the plate and reacted at room temperature for 1 hour. After preparing horseradish peroxidase-conjugated antibody by diluting 1:10,000 with blocking buffer, 100 μL was added to the plate and reacted at room temperature for 1 hour. 100 μL of TMB substrate was added and reacted for 3 minutes at room temperature, and 100 μL of 1 N sulfuric acid was then added to terminate the reaction. Then, the absorbance at 450 nm was measured to calculate the IC50 value of the compound. (+++: 1 to 100 nM, ++: greater than 100 to 1,000 nM, +: greater than 1,000 to 10,000 nM)

PRMT5-MEP50 enzyme complex, sequence (O14744 2-637): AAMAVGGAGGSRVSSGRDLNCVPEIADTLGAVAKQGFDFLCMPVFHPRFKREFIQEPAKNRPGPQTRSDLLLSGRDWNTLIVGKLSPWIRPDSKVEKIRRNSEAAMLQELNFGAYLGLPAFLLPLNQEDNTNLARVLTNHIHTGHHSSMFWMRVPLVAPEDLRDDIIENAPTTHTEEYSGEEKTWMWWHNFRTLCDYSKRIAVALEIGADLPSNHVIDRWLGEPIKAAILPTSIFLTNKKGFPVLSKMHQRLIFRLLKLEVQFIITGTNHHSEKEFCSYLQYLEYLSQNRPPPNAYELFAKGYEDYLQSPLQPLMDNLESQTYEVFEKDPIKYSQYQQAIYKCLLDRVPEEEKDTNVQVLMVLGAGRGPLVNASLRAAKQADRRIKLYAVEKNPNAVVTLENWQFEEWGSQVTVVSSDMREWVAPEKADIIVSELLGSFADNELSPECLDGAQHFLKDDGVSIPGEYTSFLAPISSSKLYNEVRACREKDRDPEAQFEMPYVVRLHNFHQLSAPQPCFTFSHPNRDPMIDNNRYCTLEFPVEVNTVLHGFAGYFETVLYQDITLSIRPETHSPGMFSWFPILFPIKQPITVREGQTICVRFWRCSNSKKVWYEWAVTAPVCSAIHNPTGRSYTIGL
PRMT5-MEP50 enzyme complex, sequence (Q9BQA1 2-342 partner): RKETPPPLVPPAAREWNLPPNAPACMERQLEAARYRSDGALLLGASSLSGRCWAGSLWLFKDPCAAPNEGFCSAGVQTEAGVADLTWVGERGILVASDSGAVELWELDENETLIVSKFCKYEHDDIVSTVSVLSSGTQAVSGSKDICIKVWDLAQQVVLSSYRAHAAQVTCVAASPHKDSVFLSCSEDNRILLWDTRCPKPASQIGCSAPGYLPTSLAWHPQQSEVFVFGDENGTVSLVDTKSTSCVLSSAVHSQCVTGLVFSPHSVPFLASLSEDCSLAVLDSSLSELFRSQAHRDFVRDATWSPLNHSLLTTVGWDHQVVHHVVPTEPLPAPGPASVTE

`COc1ccc2c(c1)CCCN(CC(O)CN1CCc3ccccc3C1)C2=O` (centres unmarked) [Example 2, 2-[3-(3,4-dihydro-1H-isoquinolin-2-yl)-2-hydroxy-propyl]-7-methoxy-4,5-dihydro-3H-2-benzazepin-1-one] was tested. Which pIC50 did it give?
The pIC50 was 6.00 to 7.00.

How did the pIC50 turn out when `O=C1c2ccc(OC(F)(F)F)cc2CCCN1CC(O)CN1CCc2ccccc2C1` (centres unmarked) [Example 4, 2-[3-(3,4-dihydro-1H-isoquinolin-2-yl)-2-hydroxy-propyl]-7-(trifluoromethoxy)-4,5-dihydro-3H-2-benzazepin-1-one] was run?
Its pIC50 is 6.00 to 7.00.

With `O=C1c2ccc(C(F)(F)F)cc2OCCN1C[C@H](O)CN1CCc2ccccc2C1` [Example 5, 4-[(2R)-3-(3,4-dihydro-1H-isoquinolin-2-yl)-2-hydroxy-propyl]-8-(trifluoromethyl)-2,3-dihydro-1,4-benzoxazepin-5-one] as the compound, how does the pIC50 read?
Its pIC50 is 6.00 to 7.00.

`O=C1c2ccc(OC(F)(F)F)cc2CCCN1C[C@H](O)CN1CCc2ccccc2C1` [Example 6, 2-[(2R)-3-(3,4-dihydro-1H-isoquinolin-2-yl)-2-hydroxy-propyl]-7-(trifluoromethoxy)-4,5-dihydro-3H-2-benzazepin-1-one] was tested. Which pIC50 did it give?
The pIC50 was 7.00 to 9.00.

How did the pIC50 turn out when `CCOc1ccc2c(c1)CCCN(C[C@H](O)CN1CCc3ccccc3C1)C2=O` [Example 7, 2-[(2R)-3-(3,4-dihydro-1H-isoquinolin-2-yl)-2-hydroxy-propyl]-7-ethoxy-4,5-dihydro-3H-2-benzazepin-1-one] was run?
The pIC50 was 6.00 to 7.00.

How did the pIC50 turn out when `O=C1c2ccc(OS(=O)(=O)C(F)(F)F)cc2CCCN1C[C@H](O)CN1CCc2ccccc2C1` [Example 8, [2-[(2R)-3-(3,4-dihydro-1H-isoquinolin-2-yl)-2-hydroxy-propyl]-1-oxo-4,5-dihydro-3H-2-benzazepin-7-yl]trifluoromethanesulfonate] was run?
Its pIC50 is 6.00 to 7.00.

How did the pIC50 turn out when `N#Cc1ccc2c(c1)CCCN(C[C@H](O)CN1CCc3ccccc3C1)C2=O` [Example 9, 2-[(2R)-3-(3,4-dihydro-1H-isoquinolin-2-yl)-2-hydroxy-propyl]-1-oxo-4,5-dihydro-3H-2-benz azepin-7-carbonitrile] was run?
The pIC50 was 6.00 to 7.00.

With `Cc1ccc2c(c1)OCCN(C[C@H](O)CN1CCc3ccccc3C1)C2=O` [Example 10, 4-[(2R)-3-(3,4-dihydro-1H-isoquinolin-2-yl)-2-hydroxy-propyl]-8-methyl-2,3-dihydro-1,4-benzoxazepin-5-one] as the compound, how does the pIC50 read?
The pIC50 was 6.00 to 7.00.

With `CC(C)Cc1ccc2c(c1)OCCN(C[C@H](O)CN1CCc3ccccc3C1)C2=O` [Example 12, 4-[(2R)-3-(3,4-dihydro-1H-isoquinolin-2-yl)-2-hydroxy-propyl]-8-isobutyl-2,3-dihydro-1,4-benzoxazepin-5-one] as the compound, how does the pIC50 read?
The pIC50 was 7.00 to 9.00.

How did the pIC50 turn out when `O=C1c2ccc(CCC(F)(F)F)cc2OCCN1C[C@H](O)CN1CCc2ccccc2C1` [Example 13, 4-[(2R)-3-(3,4-dihydro-1H-isoquinolin-2-yl)-2-hydroxy-propyl]-8-(3,3,3-trifluoropropyl)-2,3-dihydro-1,4-benzoxazepin-5-one] was run?
Its pIC50 is 7.00 to 9.00.

`CC(C)(C)OC(=O)N1CC=C(c2ccc3c(c2)OCCN(C[C@H](O)CN2CCc4ccccc4C2)C3=O)CC1` [Example 14, Tert-butyl 4-[4-[(2R)-3-(3,4-dihydro-1H-isoquinolin-2-yl)-2-hydroxy-propyl]-5-oxo-2,3-dihydro-1,4-benzoxazepin-8-yl]-3,6-dihydro-2H-pyridine-1-carboxylate] was tested. Which pIC50 did it give?
Its pIC50 is 6.00 to 7.00.

With `O=C1c2ccc(C3=CCNCC3)cc2OCCN1C[C@H](O)CN1CCc2ccccc2C1` [Example 15, 4-[(2R)-3-(3,4-dihydro-1H-isoquinolin-2-yl)-2-hydroxy-propyl]-8-(1,2,3,6-tetrahydropyridin-4-yl)-2,3-dihydro-1,4-benzoxazepin-5-one] as the compound, how does the pIC50 read?
Its pIC50 is 7.00 to 9.00.

With `CC(=O)N1CC=C(c2ccc3c(c2)OCCN(C[C@H](O)CN2CCc4ccccc4C2)C3=O)CC1` [Example 16, 8-(1-acetyl-3,6-dihydro-2H-pyridin-4-yl)-4-[(2R)-3-(3,4-dihydro-1H-isoquinolin-2-yl)-2-hydroxy-propyl]-2,3-dihydro-1,4-benzoxazepin-5-one] as the compound, how does the pIC50 read?
Its pIC50 is 7.00 to 9.00.

How did the pIC50 turn out when `CC(=O)N1CCC(c2ccc3c(c2)OCCN(C[C@H](O)CN2CCc4ccccc4C2)C3=O)CC1` [Example 17, 8-(1-acetyl-4-piperidyl)-4-[(2R)-3-(3,4-dihydro-1H-isoquinolin-2-yl)-2-hydroxy-propyl]-2,3-dihydro-1,4-benzoxazepin-5-one] was run?
Its pIC50 is 7.00 to 9.00.

`CCN1CC=C(c2ccc3c(c2)OCCN(C[C@H](O)CN2CCc4ccccc4C2)C3=O)CC1` [Example 18, 4-[(2R)-3-(3,4-dihydro-1H-isoquinolin-2-yl)-2-hydroxy-propyl]-8-(1-ethyl-3,6-dihydro-2H-pyridin-4-yl)-2,3-dihydro-1,4-benzoxazepin-5-one] was tested. Which pIC50 did it give?
Its pIC50 is 6.00 to 7.00.

How did the pIC50 turn out when `CC(C)N1CC=C(c2ccc3c(c2)OCCN(C[C@H](O)CN2CCc4ccccc4C2)C3=O)CC1` [Example 19, 4-[(2R)-3-(3,4-dihydro-1H-isoquinolin-2-yl)-2-hydroxy-propyl]-8-(1-isopropyl-3,6-dihydro-2H-pyridin-4-yl)-2,3-dihydro-1,4-benzoxazepin-5-one] was run?
The pIC50 was 6.00 to 7.00.

`O=C1c2ccc(C3=CCOCC3)cc2OCCN1C[C@H](O)CN1CCc2ccccc2C1` [Example 20, 4-[(2R)-3-(3,4-dihydro-1H-isoquinolin-2-yl)-2-hydroxy-propyl]-8-(3,6-dihydro-2H-pyran-4-yl)-2,3-dihydro-1,4-benzoxazepin-5-one] was tested. Which pIC50 did it give?
Its pIC50 is 6.00 to 7.00.

`O=C1c2ccc(C3CCOCC3)cc2OCCN1C[C@H](O)CN1CCc2ccccc2C1` [Example 21, 4-[(2R)-3-(3,4-dihydro-1H-isoquinolin-2-yl)-2-hydroxy-propyl]-8-tetrahydropyran-4-yl-2,3-dihydro-1,4-benzoxazepin-5-one] was tested. Which pIC50 did it give?
Its pIC50 is 6.00 to 7.00.

How did the pIC50 turn out when `O=C1c2ccc(CN3CCCCC3)cc2OCCN1C[C@H](O)CN1CCc2ccccc2C1` [Example 23, 4-[(2R)-3-(3,4-dihydro-1H-isoquinolin-2-yl)-2-hydroxy-propyl]-8-(1-piperidylmethyl)-2,3-dihydro-1,4-benzoxazepin-5-one] was run?
Its pIC50 is 7.00 to 9.00.

`O=C1c2ccc(CN3CCCC3)cc2OCCN1C[C@H](O)CN1CCc2ccccc2C1` [Example 24, 4-[(2R)-3-(3,4-dihydro-1H-isoquinolin-2-yl)-2-hydroxy-propyl]-8-(pyrrolidin-1-ylmethyl)-2,3-dihydro-1,4-benzoxazepin-5-one] was tested. Which pIC50 did it give?
The pIC50 was 7.00 to 9.00.

How did the pIC50 turn out when `CN(C)Cc1ccc2c(c1)OCCN(C[C@H](O)CN1CCc3ccccc3C1)C2=O` [Example 25, 4-[(2R)-3-(3,4-dihydro-1H-isoquinolin-2-yl)-2-hydroxy-propyl]-8-[(dimethylamino)methyl]-2,3-dihydro-1,4-benzoxazepin-5-one] was run?
Its pIC50 is 6.00 to 7.00.

How did the pIC50 turn out when `CCN(CC)Cc1ccc2c(c1)OCCN(C[C@H](O)CN1CCc3ccccc3C1)C2=O` [Example 26, 8-(diethylaminomethyl)-4-[(2R)-3-(3,4-dihydro-1H-isoquinolin-2-yl)-2-hydroxy-propyl]-2,3-dihydro-1,4-benzoxazepin-5-one] was run?
The pIC50 was 6.00 to 7.00.

How did the pIC50 turn out when `CC1CCN(Cc2ccc3c(c2)OCCN(C[C@H](O)CN2CCc4ccccc4C2)C3=O)CC1` [Example 27, 4-[(2R)-3-(3,4-dihydro-1H-isoquinolin-2-yl)-2-hydroxy-propyl]-8-[(4-methyl-1-piperidyl)methyl]-2,3-dihydro-1,4-benzoxazepin-5-one] was run?
Its pIC50 is 7.00 to 9.00.

`O=C1c2ccc(CN3CC4(COC4)C3)cc2OCCN1C[C@H](O)CN1CCc2ccccc2C1` [Example 28, 4-[(2R)-3-(3,4-dihydro-1H-isoquinolin-2-yl)-2-hydroxy-propyl]-8-(2-oxa-6-azaspiro[3.3]heptan-6-ylmethyl)-2,3-dihydro-1,4-benzoxazepin-5-one] was tested. Which pIC50 did it give?
Its pIC50 is 7.00 to 9.00.

How did the pIC50 turn out when `COC1CN(Cc2ccc3c(c2)OCCN(C[C@H](O)CN2CCc4ccccc4C2)C3=O)C1` [Example 29, 4-[(2R)-3-(3,4-dihydro-1H-isoquinolin-2-yl)-2-hydroxy-propyl]-8-[(3-methoxyazetidin-1-yl)methyl]-2,3-dihydro-1,4-benzoxazepin-5-one] was run?
The pIC50 was 6.00 to 7.00.

`CC1CN(Cc2ccc3c(c2)OCCN(C[C@H](O)CN2CCc4ccccc4C2)C3=O)CCO1` (stereo partly drawn) [Example 30, 4-[(2R)-3-(3,4-dihydro-1H-isoquinolin-2-yl)-2-hydroxy-propyl]-8-[(2-methylmorpholin-4-yl)methyl]-2,3-dihydro-1,4-benzoxazepin-5-one] was tested. Which pIC50 did it give?
Its pIC50 is 7.00 to 9.00.
